Data published in patent US20230091336A1, “CANNABINOID COMPOSITIONS” (priority 2020, published 2023).
Where two headings read alike, the source gives them in different places.

Key:
[1] = system: SOCE in HEK-293 human embryonic kidney cells; assay: SOCE Fura-2 bioassay in HEK293 cells; format: cell-based; conditions: for inhibitory effect in immune cells compared with non-immune HEK293 cells: 10 μM, HEK293 (FIG. 8) vs immune cells; for IC50: Table 5
SOCE in Jurkat T cells = assay: SOCE Fura-2 bioassay in Jurkat cells; format: cell-based, human; conditions: for combinatory effect on SOCE inhibition when paired with CBGA (isobolographic analysis): pairs expected to inhibit 50%, FIGS. 10A-10T; for effect on SOCE Ca^2+ signals, pure compounds: 10 μM, 1 μM thapsigargin, FIG. 7A, 7C
[2] = system: SOCE in THP-1 human monocytes; assay: SOCE Fura-2 bioassay in THP-1 cells; conditions: for combinatory effect on SOCE inhibition when paired with CBGA (isobolographic analysis): pairs expected to inhibit 50%, FIGS. 10U-10Y; for combinatory effect when paired with 2.2 μM CBGA: 10 μM cannabinoid + 2.2 μM CBGA, FIG. 10Z
[3] = system: SOCE in Luva human mast cells; assay: SOCE Fura-2 bioassay in Luva cells; conditions: Table 5
Description: (§1) Briefly, SOCE inhibition experiments were performed as described in Example 8, using each of the hemp extracts listed below and in Tables 6A and 6B at six concentrations each in each of the five cell types listed above to obtain dose response curves, as shown in FIGS. 11A-11SS. […] All data are averages of three independent runs±SEM. […] Hemp extracts used in FIGS. 11A-11SS are: Sour Space Candy (SSC), Hawaiian Haze (HH), Special Sauce (SS), Suver Haze (SH), White CBG (WCBG), Elektra (ELEK), Cherry Wine (CW), Lifter (LIF), Grape Soda (GS).

[4] = system: SOCE in RBL-2H3 rat mast cells; assay: SOCE Fura-2 bioassay in RBL-2H3 cells; conditions: Table 5
Description: as §1

[5] = system: SOCE in U937 human monocytes; assay: SOCE Fura-2 bioassay in U937 cells; conditions: Table 5
Description: as §1

[6] = Homo sapiens, read-out: IC50 SOCE, purified cannabinoids, Jurkat, Table 5
[7] = Homo sapiens, THP-1, read-out: IC50 SOCE, purified cannabinoids
[8] = Homo sapiens, Mast cell, read-out: IC50 SOCE, purified cannabinoids, Luva
[9] = Rattus norvegicus, RBL-2H3, read-out: IC50 SOCE, purified cannabinoids, RBL-2H3
[10] = Homo sapiens, U-937, read-out: IC50 SOCE, purified cannabinoids, U937
[11] = Homo sapiens, HEK293, read-out: IC50 SOCE, purified cannabinoids, HEK-293

Row | Structure (SMILES) | inhibitory effect in immune cells compared with non-immune HEK293 cells [1] | IC50 (SOCE in Jurkat T cells; read-out: IC50 SOCE, purified cannabinoids, Table 5) [µM] | IC50 ([2]; read-out: IC50 SOCE, purified cannabinoids, THP-1, Table 5) [µM] | IC50 ([3]; read-out: IC50 SOCE, purified cannabinoids, Luva) [µM] | IC50 ([4]; read-out: IC50 SOCE, purified cannabinoids, RBL-2H3) [µM] | IC50 ([5]; read-out: IC50 SOCE, purified cannabinoids, U937) [µM] | IC50 ([1]; read-out: IC50 SOCE, purified cannabinoids, HEK-293) [µM] | IC50 (SOCE in Jurkat T cells; [6]) [µM] | combinatory effect on SOCE inhibition when paired with CBGA (isobolographic analysis) (SOCE in Jurkat T cells) | IC50 [2, 7] [µM] | IC50 [3, 8] [µM] | IC50 [4, 9] [µM] | IC50 [5, 10] [µM] | IC50 [1, 11] [µM] | effect on SOCE Ca^2+ signals, pure compounds (SOCE in Jurkat T cells) | combinatory effect on SOCE inhibition when paired with CBGA (isobolographic analysis) ([2]; THP-1) | combinatory effect when paired with 2.2 μM CBGA ([2]; THP-1)
1 | CCCCCc1cc(O)c2c(c1)OC(C)(C)[C@@H]1CCC(C(=O)O)=C[C@@H]21 [11-COOH-Δ9-THC, (6aR,10aR)-1-hydroxy-6,6-dimethyl-3-pentyl-6a,7,8,10a-tetrahydro-6H-benzo[c]chromene-9-carboxylic acid] | selective | – | – | – | – | – | – | – | – | – | – | – | – | – | – | – | –
2 | CCCCCc1cc(O)c2c(c1)OC(C)(CCC=C(C)C)C=C2 (stereo not shown) [CBC, 2-methyl-2-(4-methylpent-3-en-1-yl)-7-pentyl-2H-chromen-5-ol] | – | 13.1 | > 50 | 26.8 | 31.6 | 40.8 | 18.7 | – | – | – | – | – | – | – | – | – | –
3 | CCCCCc1cc2c(c(O)c1C(=O)O)C=C[C@@](C)(CCC=C(C)C)O2 [CBCA, (R)-5-hydroxy-2-methyl-2-(4-methylpent-3-en-1-yl)-7-pentyl-2H-chromene-6-carboxylic acid] | – | – | – | – | – | – | – | 1.13 | Simple additive | 29.1 | > 50 | > 50 | > 50 | > 50 | – | – | –
4 | C=C(C)[C@@H]1CCC(C)=C[C@H]1c1c(O)cc(CCCCC)c(C(=O)O)c1O [CBDA, (1′R,2′R)-2,6-dihydroxy-5′-methyl-4-penlyl-2′-(prop-1-en-2-yl)-1′,2′,3′,4′-tetrahydro-[1,1′-biphenyl]-3-carboxylic acid] | selective | – | – | – | – | – | – | 4.07 | sub-additive | 5.17 | 2.4 | 16.1 | 5.83 | 26.9 | fully block the Ca^2+ signals | sub-additive | –
5 | C=C(C)[C@@H]1CCC(C)=C[C@H]1c1c(O)cc(CCC)cc1O [CBDV, (1′R,2′R)-5′-methyl-2′-(prop-1-en-2-yl)-4-propyl-1′,2′,3′,4′-tetrahydro-[1,1′-biphenyl]-2,6-diol] | selective | – | – | – | – | – | – | 6 | sub-additive | > 50 | 0.17 | 30.2 | 17.5 | 17.8 | – | – | –
6 | C=C(C)[C@@H]1CCC(C)=C[C@H]1c1c(O)cc(CCC)c(C(=O)O)c1O [CBDVA, (1′R,2′R)-2,6-dihydroxy-5′-methyl-2′-(prop-1-en-2-yl)-4-propyl-1′,2′,3′,4′-tetrahydro-[1,1′-biphenyl]-3-carboxylic acid] | – | – | – | – | – | – | – | 11.3 | sub-additive | 8.45 | 11.3 | 23.5 | 10.6 | 20.7 | – | – | –
7 | CCCCCc1cc(O)c(C/C=C(\C)CCC=C(C)C)c(O)c1 [CBG, (E)-2-(3,7-dimethylocta-2,6-dien-1-yl)-5-penlylbenzene-1,3-diol] | – | – | – | – | – | – | – | 2.36 | supra-additive | 33.6 | 3.29 | > 50 | 33.5 | > 50 | – | – | simple additive agonists
8 | CCCc1cc(O)c(C/C=C(\C)CCC=C(C)C)c(O)c1 [CBGV, (E)-2-(3,7-dimethylocta-2,6-dien-1-yl)-5-propylbenzene-1,3-diol] | – | – | – | – | – | – | – | 5.27 | supra-additive | 40.7 | 6.46 | 30.9 | 14.5 | 9.16 | – | – | simple additive agonists
9 | CCCc1cc(O)c(C/C=C(\C)CCC=C(C)C)c(O)c1C(=O)O [CBGVA, (E)-3-(3,7-dimethylocta-2,6-dien-1-yl)-2,4-dihydroxy-6-propylbenzoic acid] | – | – | – | – | – | – | – | 1.15 | Simple additive | 2.6 | 2.53 | 4.15 | 2.86 | 2.11 | – | sub-additive | –
10 | CCCCCc1cc(O)c2c(c1)O[C@]1(C)CC[C@@H]3C1[C@@H]2C3(C)C (stereo partly drawn) [CBL, (1aS,1a1R,3aR,8bR)-1,1,3a-trimethyl-6-pentyl-1a,1a1,2,3,3a,8b-hexahydro-1H-4-oxabenzo[f]cyclobuta[cd]inden-8-ol] | – | – | – | – | – | – | – | > 50 | Simple additive | > 50 | > 50 | > 50 | > 50 | > 50 | – | – | –
11 | CCCCCc1cc2c(c(O)c1C(=O)O)[C@@H]1[C@H]3C(CC[C@@]3(C)O2)C1(C)C (stereo partly drawn) [CBLA, (1aS,1a1R,3aR,8bR)-8-hydroxy-1,1,3a-trimethyl-6-pentyl-1a, 1a1,2,3,3a, 8b-hexahydro-1H-4-oxabenzo[f]cyclobuta[cd]indene-7-carboxylic acid] | – | – | – | – | – | – | – | 9.29 | sub-additive | 12.4 | 20.9 | > 50 | 28.3 | 31.1 | – | – | –
12 | CCCCCc1cc(O)c2c(c1)OC(C)(C)c1ccc(C)cc1-2 [CBN, 6,6,9-trimethyl-3-pentyl-6H-benzo[c]chromen-1-ol] | – | – | – | – | – | – | – | 9.09 | Simple additive | > 50 | 33.4 | 42.6 | 45.3 | 26.9 | – | – | simple additive agonists
13 | CCCCCc1cc2c(c(O)c1C(=O)O)-c1cc(C)ccc1C(C)(C)O2 [CBNA, 1-hydroxy-6,6,9-trimethyl-3-pentyl-6H-benzo[c]chromene-2-carboxylic acid] | – | – | – | – | – | – | – | 0.99 | Simple additive | 7.25 | > 50 | 22.5 | 19.2 | 29.5 | – | sub-additive | –
14 | C=C(C)c1ccc(C)cc1-c1c(O)cc(CCCCC)cc1O [CBND, 5′-methyl-4-pentyl-2′-(prop-1-en-2-yl)-[1,1′ biphenyl]-2,6-diol] | – | – | – | – | – | – | – | 6.7 | Simple additive | > 50 | 19 | 32.8 | 24 | 21.4 | – | – | –
15 | CCCCCc1cc(OC)c2c(c1)OC(C)(C)c1ccc(C)cc1-2 [CBNM, 1-methoxy-6,6,9-trimethyl-3-pentyl-6H-benzo[c]chromene] | – | – | – | – | – | – | – | > 50 | – | > 50 | > 50 | > 50 | > 50 | > 50 | – | – | –
16 | CCCCCc1cc2c(c(O)c1C(=O)O)[C@@H]1C=C(C)CC[C@H]1C(C)(C)O2 [THCA, (6aR, 10aR)-1-hydroxy-6,6,9-trimethyl-3-pentyl-6a,7,8,10a-tetrahydro-6H-benzo[c]chromene-2-carboxylic acid] | – | – | – | – | – | – | – | 2.23 | Simple additive | 10.4 | 0.57 | 17.5 | 8.1 | 20.7 | fully block the Ca^2+ signals | sub-additive | –
